These results are taken from patent publication US4751302A, “Indazole derivatives” (priority 1982, dated 1988).

Data set [1] concerns Carrageenin edema in rat's paw. The data set can be described thus: Carrageenin Edema Test in Rat's Paw (anti-inflammatory activity, Table 1). In kind it is in vivo. The following applies: 100 mg/kg oral, hydrochloride, rat. On the procedure:
An anti-inflammatory activity was measured by orally administering 100 mg/kg of a hydrochloride of the indazole derivative of this invention as set forth in Table 1 to an animal in accordance with the standard method of Carrageenin Edema Test in Rat's Paw described in C. A. Winter et al., Proc. Soc. Exp. Biol. Med., 111, 544 (1962).

A further data set can be described thus: in vivo. As to conditions: mouse, ip, intraperitoneal, hydrochloride, male ddy mice.

The term inhibition in vivo denotes the percentage by which the read-out fell short of the control. A higher inhibition in vivo goes with a response far below the control. As usually defined, the LD50 is the dose at which mortality reaches 50%. Turning to `CCN(CC)CCCNc1nn(CCCN(CC)CC)c2c(Cl)cccc12` [(92), 1-(3-Diethylaminopropyl)-3-(3-diethylaminopropylamino)-7-chloroindazole], the inhibition in vivo at 100 mg/kg in data set [1] was 32%. The compound also registered an LD50 in the data set “in vivo” of 211 mg/kg.

Consider `CCN(CC)CCCNc1nn(CCCN(CC)CC)c2ccc(N)cc12` [(93), 1-(3-Diethylaminopropyl)-3-(3-diethylaminopropylamino)-5-aminoindazole], for which at 100 mg/kg the inhibition in vivo in data set [1] was 28%. Also, in the data set “in vivo”, the LD50 is 191 mg/kg.

In data set [1], `CCN(CC)CCCNc1nn(CCCN(CC)CC)c2ccc(OC)cc12` [(94), 1-(3-Diethylaminopropyl)-3-(3-diethylaminopropylamino)-5-methoxyindazole] registered an inhibition in vivo at 100 mg/kg of 30%. Further, the LD50 in the data set “in vivo” amounted to 301 mg/kg.

As to `CCN(CC)CCCNc1nn(CCCN(CC)CC)c2ccc(C)cc12` [(95), 1-(3-Diethylaminopropyl)-3-(3-diethylaminopropylamino)-5-methylindazole], the inhibition in vivo at 100 mg/kg in data set [1] was 29%. Besides, the LD50 in “in vivo” was 211 mg/kg.

In turn, `CCN(CC)CCCn1nc(NCCCN2CCCCC2)c2cc(Cl)ccc21` [(96), 1-(3-Diethylaminopropyl)-3-(3-piperidinopropylamino)-5-chloroindazole] came in with an inhibition in vivo at 100 mg/kg in data set [1] of 29%. The LD50 in “in vivo” worked out at 243 mg/kg.

The compound `CCN(CC)CCCn1nc(NCCCCCCN2CCCCC2)c2cc(Cl)ccc21` [(97), 1-(3-Diethylaminopropyl)-3-(6-piperidinohexylamino)-5-chloroindazole] showed an inhibition in vivo at 100 mg/kg in data set [1] of 22%. For the same compound, the LD50 in the data set “in vivo” was 229 mg/kg.

Compound `CCCCN(CCCC)CCCNc1nn(CCCN(CC)CC)c2ccc(Cl)cc12` [(98), 1-(3-Diethylaminopropyl)-3-(3-di-n-butylaminopropylamino)-5-chloroindazole] had an inhibition in vivo at 100 mg/kg in data set [1] of 32%. This compound came in with an LD50 in “in vivo” of 286 mg/kg.

Regarding `CCN(CC)CCCn1nc(NCCC(C)N2CCCCC2)c2cc(Cl)ccc21` (stereo not drawn) [(99), 1-(3-Diethylaminopropyl)-3-(3-piperidinobutylamino)-5-chloroindazole], in data set [1], testing at 100 mg/kg gave an inhibition in vivo of 28%. In “in vivo”, this compound came in with an LD50 of 295 mg/kg.

In turn, `CCN(CC)CCCNc1nn(CCCN2CCCCC2)c2ccc(Cl)cc12` [(100), 1-(3-Piperidinopropyl)-3-(3-diethylaminopropylamino)-5-chloroindazole] registered an inhibition in vivo at 100 mg/kg in data set [1] of 30%. The compound also yielded an LD50 in the data set “in vivo” of 281 mg/kg.

As for `Clc1ccc2c(c1)c(NCCCN1CCCCC1)nn2CCCN1CCCCC1` [(101), 1-(3-Piperidinopropyl)-3-(3-piperidinopropylamino)-5-chloroindazole], in data set [1], 100 mg/kg produced 29% inhibition in vivo. The compound further registered an LD50 in “in vivo” of 211 mg/kg.

In turn, `Clc1ccc2c(c1)c(NCCCCCCN1CCCCC1)nn2CCCN1CCCCC1` [(102), 1-(3-Piperidinopropyl)-3-(6-piperidinohexylamino)-5-chloroindazole] yielded an inhibition in vivo at 100 mg/kg in data set [1] of 22%. In addition, the LD50 in the data set “in vivo” was found to be 255 mg/kg.

For the compound `CC(CCNc1nn(CCCN2CCCCC2)c2ccc(Cl)cc12)N1CCCCC1` (stereo not drawn) [(103), 1-(3-Piperidinopropyl)-3-(3-piperidinobutylamino)-5-chloroindazole], in data set [1], the inhibition in vivo at 100 mg/kg came out at 29%. The same compound yielded an LD50 in “in vivo” of 261 mg/kg.

Turning to `CCN(CC)CCCNc1nn(CCC(C)N2CCCCC2)c2ccc(Cl)cc12` (stereo not drawn) [(104), 1-(3-Piperidinobutyl)-3-(3-diethylaminopropylamino)-5-chloroindazole], in data set [1], the inhibition in vivo at 100 mg/kg stood at 30%. In the data set “in vivo”, this compound showed an LD50 of 277 mg/kg.

On to `CC(CCn1nc(NCCCN2CCCCC2)c2cc(Cl)ccc21)N1CCCCC1` (stereo not drawn) [(105), 1-(3-Piperidinobutyl)-3-(3-piperidinopropylamino)-5-chloroindazole], for which, in data set [1], the inhibition in vivo at 100 mg/kg was 29%. In addition, the LD50 in the data set “in vivo” was found to be 231 mg/kg.

`CC(C)CC(CCNc1nn(CCC(C)N2CCCCC2)c2ccc(Cl)cc12)N1CCCCC1` (stereo not drawn) [(106), 1-(3-Piperidinobutyl)-3-(3-piperidino-5-methylhexylamino)-5-chloroindazole] returned an inhibition in vivo at 100 mg/kg in data set [1] of 22%. For the same compound, the LD50 in “in vivo” stood at 228 mg/kg.

As to `CC(CCNc1nn(CCC(C)N2CCCCC2)c2ccc(Cl)cc12)N(C)C` (stereo not drawn) [(107), 1-(3-Piperidinobutyl)-3-(3-dimethylaminobutylamino)-5-chloroindazole], the inhibition in vivo at 100 mg/kg in data set [1] was 22%. The same compound returned an LD50 in the data set “in vivo” of 231 mg/kg.

Regarding `CCN(CC)CCCNc1nn(CCC(C)N(C)C)c2ccc(Cl)cc12` (stereo not drawn) [(108), 1-(3-Dimethylaminobutyl)-3-(3-diethylaminopropylamino)-5-chloroindazole], the inhibition in vivo at 100 mg/kg in data set [1] came to 30%. The LD50 in “in vivo” is 118 mg/kg.

In data set [1], `CC(CCn1nc(NCCCN2CCCCC2)c2cc(Cl)ccc21)N(C)C` (stereo not drawn) [(109), 1-(3-Dimethylaminobutyl)-3-(3-piperidinopropylamino)-5-chloroindazole] came in with an inhibition in vivo at 100 mg/kg of 29%. The same compound returned an LD50 in the data set “in vivo” of 387 mg/kg.

As for `CC(CCn1nc(NCCC(C)N2CCCCC2)c2cc(Cl)ccc21)N(C)C` (stereo not drawn) [(110), 1-(3-Dimethylaminobutyl)-3-(3-piperidinobutylamino)-5-chloroindazole], 100 mg/kg produced 28% inhibition in vivo in data set [1]. This compound also came in with an LD50 in “in vivo” of 293 mg/kg.

The compound `CCN(CC)C(CCNc1nn(CCC(C)N(C)C)c2ccc(Cl)cc12)CC(C)C` (stereo not drawn) [(111), 1-(3-Dimethylaminobutyl)-3-(3-diethylamino-5-methylhexylamino)-5-chloroindazole] gave an inhibition in vivo at 100 mg/kg in data set [1] of 22%. This compound also yielded an LD50 in “in vivo” of 314 mg/kg.

`Clc1ccc2c(c1)c(NCCCN1CCCCCC1)nn2CCCN1CCCC1` [(112), 1-(3-Pyrrolidinopropyl)-3-(3-homopiperidinopropylamino)-5-chloroindazole] came in with an inhibition in vivo at 100 mg/kg in data set [1] of 29%. Also, the LD50 in the data set “in vivo” was determined as 325 mg/kg.

In turn, `CC1CCCCN1CCCNc1nn(CCCN2CCCC2)c2ccc(Cl)cc12` (stereo not drawn) [(113), 1-(3-Pyrrolidinopropyl)-3-[3-(2-methylpiperidino)propylamino]-5-chloroindazole] registered an inhibition in vivo at 100 mg/kg in data set [1] of 31%. In addition, the LD50 in “in vivo” worked out at 221 mg/kg.

With `CN1CCN(CCCNc2nn(CCCN3CCCC3)c3ccc(Cl)cc23)CC1` [(114), 1-(3-Pyrrolidinopropyl)-3-[3-(4-methylpiperazino)propylamino]-5-chloroindazole], at 100 mg/kg the inhibition in vivo in data set [1] was 30%. The LD50 in “in vivo” was determined as 299 mg/kg.

Compound `CCN(CC)CCCNc1nn(CCCN2CCOCC2)c2ccc(Cl)cc12` [(115), 1-(3-Morpholinopropyl)-3-(3-diethylaminopropylamino)-5-chloroindazole] came in with an inhibition in vivo at 100 mg/kg in data set [1] of 31%. In the data set “in vivo”, this compound displayed an LD50 of 301 mg/kg.

`CC1CCCC(C)N1CCCNc1nn(CCCN2CCOCC2)c2ccc(Cl)cc12` (stereo not drawn) [(116), 1-(3-Morpholinopropyl)-3-[3-(2,6-dimethylpiperidino)propylamino]-5-chloroindazole] displayed an inhibition in vivo at 100 mg/kg in data set [1] of 33%. The LD50 in “in vivo” amounted to 311 mg/kg.

`Clc1ccc2c(c1)c(NCCCN1CCC(Cl)CC1)nn2CCCN1CCOCC1` [(117), 1-(3-Morpholinopropyl)-3-[3-(4-chloropiperidino)propylamino]-5-chloroindazole] displayed an inhibition in vivo at 100 mg/kg in data set [1] of 30%. In the data set “in vivo”, this compound showed an LD50 of 291 mg/kg.

Regarding `OC1CCN(CCCNc2nn(CCCN3CCOCC3)c3ccc(Cl)cc23)CC1` [(118), 1-(3-Morpholinopropyl)-3-[3-(4-hydroxypiperidino)propylamino]-5-chloroindazole], the inhibition in vivo at 100 mg/kg in data set [1] worked out at 31%. Moreover, in the data set “in vivo”, the LD50 was 287 mg/kg.

As to `CCN(CC)CCCNc1nn(CCCN(CC)CC)c2cccc(O)c12` [(119), 1-(3-Diethylaminopropyl)-3-(3-diethylaminopropylamino)-4-hydroxyindazole], the inhibition in vivo at 100 mg/kg in data set [1] amounted to 29%. Further, the LD50 in the data set “in vivo” worked out at 271 mg/kg.

In the case of `CCN(CC)CCCNc1nn(CCCN(CC)CC)c2ccc(O)cc12` [(120), 1-(3-Diethylaminopropyl)-3-(3-diethylaminopropylamino)-5-hydroxyindazole], in data set [1], the inhibition in vivo at 100 mg/kg amounted to 28%. The compound also yielded a 50% lethal dose (LD50) in the data set “in vivo” of 269 mg/kg.

`CCN(CC)CCCNc1nn(CCCN(CC)CC)c2cc(O)ccc12` [(121), 1-(3-Diethylaminopropyl)-3-(3-diethylaminopropylamino)-6-hydroxyindazole] displayed an inhibition in vivo at 100 mg/kg in data set [1] of 21%. Also, in the data set “in vivo”, the LD50 was 251 mg/kg.

Consider `CCN(CC)CCCNc1nn(CCCN(CC)CC)c2c(O)cccc12` [(122), 1-(3-Diethylaminopropyl)-3-(3-diethylaminopropylamino)-7-hydroxyindazole], for which the inhibition in vivo at 100 mg/kg in data set [1] was 31%. For the same compound, the LD50 in “in vivo” was found to be 245 mg/kg.

As to `CCN(CC)CCCNc1nn(CCCN(CC)CC)c2ccc(I)cc12` [(123), 1-(3-Diethylaminopropyl)-3-(3-diethylaminopropylamino)-5-iodoindazole], 100 mg/kg produced 27% inhibition in vivo in data set [1]. Besides, in “in vivo”, the LD50 was 291 mg/kg.

`CCN(CC)CCCNc1nn(CCCN(CC)CC)c2c(I)cccc12` [(124), 1-(3-Diethylaminopropyl)-3-(3-diethylaminopropylamino)-7-iodoindazole] gave an inhibition in vivo at 100 mg/kg in data set [1] of 29%. For the same compound, the LD50 in the data set “in vivo” is 313 mg/kg.

`CCN(CC)CCCNc1nn(CCCN(CC)CC)c2c(N)cc(N)cc12` [(125), 1-(3-Diethylaminopropyl)-3-(3-diethylaminopropylamino)-5,7-diaminoindazole] had an inhibition in vivo at 100 mg/kg in data set [1] of 28%. The compound also gave an LD50 in “in vivo” of 320 mg/kg.

In data set [1], `CCN(CC)CCCn1nc(NCCCCCCN2CCCCC2)c2cc(O)ccc21` [(127), 1-(3-Diethylaminopropyl)-3-(6-piperidinohexylamino)-5-hydroxyindazole] displayed an inhibition in vivo at 100 mg/kg of 21%. This compound came in with an LD50 in the data set “in vivo” of 198 mg/kg.

As to `CCCCN(CCCC)CCCNc1nn(CCCN(CC)CC)c2ccc(O)cc12` [(128), 1-(3-Diethylaminopropyl)-3-(3-di-n-butylaminopropylamino)-5-hydroxyindazole], the inhibition in vivo at 100 mg/kg in data set [1] was determined as 31%. Besides, in “in vivo”, the LD50 is 170 mg/kg.
